According to paper PMC10810823, “Generation of a new therapeutic D-peptide that induces the differentiation of acute myeloid leukemia cells through A TLR-2 signaling pathway” (Cell Death Discovery, 2024):
Where a SMILES comes first, the peptide text is derived from it. Where no end group is shown, it is not given here. [ ]: non-standard residue; d: D form.

Tests used:
NOD/SCID mice = test: In vivo toxicity at 10-fold treatment dose (H&E of major organs, glucose and serum biochemical indices); settings: 200 mg/kg i.v. every 3 days, 30 days, n = 3 per group
Protocol: Based on the above in vitro findings, we next tested whether the peptides could suppress the growth of leukemia cells in vivo. To this end, NOD/SCID mice were subcutaneously inoculated with THP-1 cells. L-pep-P6, D-pep-P6, or pep-NC was injected intravenously into NOD/SCID mice (n = 3 per group) at a 10-fold treatment dose (200 mg/kg) every 3 days. We first examined the toxicity of these peptides in vivo. After 30 days of indicated treatments, the major organs, including the heart, kidney, spleen, liver, and lung, were isolated and stained with hematoxylin and eosin. No histological changes in major organs were detectable in the peptide-treated groups when compared with the untreated group (Fig. 4A). We further examined the glucose and serum biochemical indices, such as aspartate aminotransferase (AST), alanine aminotransferase (ALT), creatinine (Cr), and urea.
The mice were categorized into three groups, including the pep-NC group, the D-pep-P6 group, and the […] group (n = 3 per group). These groups received a dosage that was ten times the standard therapeutic amount via the tail vein. Major organs of mice from different treated groups were fixed in 4% formaldehyde for hematoxylin and eosin staining. Following a hydration process, the tissues were stained with Harris hematoxylin for 15 min. […]

[1] = In vivo pharmacokinetic assay; design: species or system NOD/SCID mice
Protocol: In addition, we administered a therapeutic dose of D-pep-P6 (20 mg/kg) via intravenous tail injection into NOD/SCID mice (n = 3 per group). Serum samples were collected at various time points, and the content of D-pep-P6 was quantitatively analyzed using high-performance liquid chromatography coupled with mass spectrometry (Supplemental Fig. 3).
Female NOD/SCID mice weighing between 18 and 20 g were utilized for the pharmacokinetic analysis of D-pep-p6. In the plasma, D-pep-p6 pharmacokinetic profile analysis, groups of mice (n = 3) were administered a single intravenous dose of 20 mg/kg. Blood samples were collected at specified time intervals and subsequently centrifuged at 8000 rpm for 10 min. The resulting plasma was mixed with CH4O in a 3:1 (v/v) ratio and centrifuged once more at 13,000 rpm for 10 min. The supernatant was then analyzed using RP-HPLC to determine parameters such as the maximum plasma concentration (Cmax) and elimination half-life (T1/2).

THP-1 cells [2] = test: Cell differentiation induction: ratio of adherent cells; assay type: cell-based, human; settings: clonal phages P1, P2, P6, P9 enriched in Round 3; Fig. 1G
Protocol: (§1) The THP-1, U937, and HL-60 cell lines were purchased from ATCC. THP-1, HL-60, and U937 cells were cultured in RPMI 1640 containing 2 mM glutamine, 100 IU/ml penicillin and 100 μg/ml streptomycin (Sigma), supplemented with 10% fetal bovine serum (FBS; Gibco). Cell cultures were maintained at 37 °C, 5% CO2 at 0.8–1 × 10^5 cells/ml. For the initiation of differentiation in THP-1, HL-60, U937, and primary AML cells, the cells were seeded into 12-well tissue culture plates at 1 × 10^6 cells/well. Subsequently, these cells were exposed to the indicated clonal phages (10^10 virions per well), peptides (10 μg/ml), or 100 nM PMA (Sigma-Aldrich, MO, USA).
Cells were cultured according to the method described above. As the adherent cell numbers reached a peak at 48 h and declined after 72 h, we chose 48 h as the incubation time in the following experiments. Following the incubation period, cells within each were washed 3 times with PBS. Cells were considered to be adherent if they resisted the vigorous shake of the culture flask and washing by pipetting with a normal growth medium. To assess the ratio of adherent cells, an equal amount of FITC beads (BioLegend, Catalog # 424601, CA, USA) was separately introduced to both suspended and adherent cells. Subsequently, the proportions of FITC beads were measured using FACS. […]

THP-1 cells [3] = test: Differentiation: cell surface CD11b and CD14 by FACS; assay type: cell-based, human; settings: THP-1, 48 h; ***P < 0.001; 6 independent experiments
Protocol: as §1
Differentiation status was also assessed by morphological observation of the cells and by FACS detection of cell surface CD11b and CD14 expression (Table 3). FcR Blocking Reagent (Miltenyi Biotec) was employed to prevent undesired antibody binding and enhance the staining specificity of cell surface antigens.

THP-1 cells [4] = test: Proliferation by Ki-67 staining, FACS; assay type: cell-based, human; settings: THP-1, 48 h; Fig. 1D
Protocol: as §1
To assess proliferation, Ki-67 was detected using FACS after 48 h of cell culture exposed to a specific stimulation. Following the manual instruction, the target cells were incubated with 70% cold ethanol at −20 °C for 1 h, washed, and then suspended at a concentration of 1.0 × 10^7/ml in BioLegend Cell Staining Buffer. Subsequently, 100 µl cell suspension was incubated with the 5 µl Ki-67 antibody for flow cytometric analysis.

THP-1 cells [5] = test: Apoptosis by Annexin V/propidium iodide staining, flow cytometry; assay type: cell-based, human; settings: THP-1, 48 h; Fig. 1C
Protocol: as §1
APC Annexin V Apoptosis Detection Kit with PI (BioLegend, Catalog # 640932, CA, USA) was employed to evaluate cell apoptosis. Target cells were washed twice with cold BioLegend’s Cell Staining Buffer, then suspended in Annexin V Binding Buffer at a concentration of 0.25–1.0 × 10^7 cells/ml. To 100 µL of the cell suspension, 5 µL of APC Annexin V and 10 µL of Propidium Iodide Solution (PI) were added. The suspension was gently vortexed and incubated in the dark for 15 minutes at room temperature. Finally, 400 µL of Annexin V Binding Buffer was added to each tube, and the samples were analyzed by flow cytometry. […]

CC(C)C[C@@H](NC(=O)[C@@H](CCC(=O)O)NC(=O)[C@H](NC(=O)CNC(=O)[C@@H](Cc1ccccc1)NC(=O)CNC(=O)[C@H]1CCCN1C(=O)[C@@H](Cc1ccccc1)NC(=O)[C@H](N)CCC(N)=O)[C@H](C)O)C(=O)N1CCC[C@@H]1C(=O)N[C@H](CO)C(=O)N[C@H](CO)C(=O)O [D-pep-P6] (H-[dQ][dF][dP]G[dF]G[dT][dE][dL][dP][dS][dS]-OH)
signs of toxicity / overall toxicity (NOD/SCID mice): low toxicity
resistance to proteolysis / stability in vivo ([1]; NOD/SCID mice, i.v. 20 mg/kg, from concentration-time curve): remarkable resistance to proteolysis
Cmax ([1]; mouse, iv, female NOD/SCID mice, single i.v. 20 mg/kg, n = 3 per time point, plasma (serum), RP-HPLC (HPLC coupled with mass spectrometry), read-out: maximum concentration (Cmax)): 13200 ng/mL

QFPGFGTELPSS [P6, monoclonal phage from Ph.D.-12 library displaying …]
capability for inducing THP-1 cell differentiation (percentage of adherent cells) among clonal phages (THP-1 cells [2]): greatest capability for inducing THP-1 cell differentiation
MFI of CD11b expression induced by P6 relative to that induced by PMA (THP-1 cells [3]): 1.5 fold
MFI of CD14 expression induced by P6 relative to that induced by PMA (THP-1 cells [3]): 1.3 fold

CCCCCCCCCCCCCC(=O)O[C@@H]1[C@@H](C)[C@@]2(O)[C@@H](C=C(CO)C[C@]3(O)C(=O)C(C)=C[C@@H]23)[C@@H]2C(C)(C)[C@]12OC(C)=O [PMA, phorbol 12-myristate 13-acetate]
proliferation (Ki-67 expression) compared to negative control (THP-1 cells [4]): significant reduction in proliferation
proportions of apoptotic and necrotic cells compared to the unstimulated group (THP-1 cells [5]): slight increase

QFPGFGTELPSS [L-pep-P6]
signs of toxicity / overall toxicity (NOD/SCID mice): low toxicity
